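All cell lines were grown in 96-well plates and treated with compound for 48 hours. At the TGI there is no net growth.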
Tests used:
Assay in all cases: NCI-60 cell line screen, 48 h
A549 NSCLC = system: A549 NSCLC
T-47D breast = system: T-47D breast
SF-268 CNS = system: SF-268 CNS
MDA-MB-231 breast = system: MDA-MB-231 breast
OVCAR-4 ovarian = system: OVCAR-4 ovarian
M14 melanoma = system: M14 melanoma
IGROV1 ovarian = system: IGROV1 ovarian
OVCAR-3 ovarian = system: OVCAR-3 ovarian
HS 578T breast = system: HS 578T breast
SNB-19 CNS = system: SNB-19 CNS
SK-MEL-5 melanoma = system: SK-MEL-5 melanoma
NCI-H522 lung = system: NCI-H522 lung
MDA-N = system: MDA-N
SNB-75 CNS = system: SNB-75 CNS
RXF 393 renal = system: RXF 393 renal
K-562 leukemia = system: K-562 leukemia
ACHN renal = system: ACHN renal
NCI-H226 lung = system: NCI-H226 lung
SF-539 CNS = system: SF-539 CNS
NCI-H460 lung = system: NCI-H460 lung
TK-10 renal = system: TK-10 renal
EKVX NSCLC = system: EKVX NSCLC
MOLT-4 leukemia = system: MOLT-4 leukemia
786-0 renal = system: 786-0 renal
OVCAR-5 ovarian = system: OVCAR-5 ovarian
U251 CNS = system: U251 CNS
UACC-257 melanoma = system: UACC-257 melanoma
UO-31 renal = system: UO-31 renal
CCRF-CEM leukemia = system: CCRF-CEM leukemia
SF-295 CNS = system: SF-295 CNS
HL-60(TB) leukemia = system: HL-60(TB) leukemia
KM12 colon = system: KM12 colon
NCI-H23 lung = system: NCI-H23 lung
BT-549 breast = system: BT-549 breast
OVCAR-8 ovarian = system: OVCAR-8 ovarian
MCF7 breast = system: MCF7 breast
SR leukemia = system: SR leukemia
MDA-MB-435 = system: MDA-MB-435
DU-145 prostate = system: DU-145 prostate
A498 renal = system: A498 renal
UACC-62 melanoma = system: UACC-62 melanoma
SK-MEL-2 melanoma = system: SK-MEL-2 melanoma
CAKI-1 renal = system: CAKI-1 renal
COLO 205 colon = system: COLO 205 colon
SK-MEL-28 melanoma = system: SK-MEL-28 melanoma
HOP-62 NSCLC = system: HOP-62 NSCLC
HCT-116 colon = system: HCT-116 colon
HCT-15 colon = system: HCT-15 colon
RPMI-8226 leukemia = system: RPMI-8226 leukemia
SN12C renal = system: SN12C renal
SW-620 colon = system: SW-620 colon
HT29 colon = system: HT29 colon
NCI/ADR-RES ovarian = system: NCI/ADR-RES ovarian
SK-OV-3 ovarian = system: SK-OV-3 ovarian
LOX IMVI melanoma = system: LOX IMVI melanoma
HOP-92 NSCLC = system: HOP-92 NSCLC
PC-3 prostate = system: PC-3 prostate
MALME-3M melanoma = system: MALME-3M melanoma

What does the source list for CC(C)=Nn1cnc2c1NC(C)(C)N=C2C(N)=O?
TGI (A549 NSCLC): > 10 µM; TGI (T-47D breast): 8.19 µM; TGI (SF-268 CNS): > 10 µM; TGI (MDA-MB-231 breast): 7.64 µM; TGI (OVCAR-4 ovarian): > 10 µM; TGI (M14 melanoma): > 10 µM; TGI (IGROV1 ovarian): > 10 µM; TGI (OVCAR-3 ovarian): > 10 µM; TGI (HS 578T breast): > 10 µM; TGI (SNB-19 CNS): > 10 µM; TGI (SK-MEL-5 melanoma): > 10 µM; TGI (NCI-H522 lung): > 10 µM; TGI (MDA-N): > 10 µM; TGI (SNB-75 CNS): > 10 µM; TGI (RXF 393 renal): > 10 µM; TGI (K-562 leukemia): > 10 µM; TGI (ACHN renal): > 10 µM; TGI (NCI-H226 lung): > 10 µM; TGI (SF-539 CNS): > 10 µM; TGI (NCI-H460 lung): > 10 µM; TGI (TK-10 renal): > 10 µM; TGI (EKVX NSCLC): > 10 µM; TGI (MOLT-4 leukemia): > 10 µM; TGI (786-0 renal): > 10 µM; TGI (OVCAR-5 ovarian): > 10 µM; TGI (U251 CNS): > 10 µM; TGI (UACC-257 melanoma): > 10 µM; TGI (UO-31 renal): > 10 µM; TGI (CCRF-CEM leukemia): > 10 µM; TGI (SF-295 CNS): > 10 µM; TGI (HL-60(TB) leukemia): > 10 µM; TGI (KM12 colon): > 10 µM; TGI (NCI-H23 lung): > 10 µM; TGI (BT-549 breast): > 10 µM; TGI (OVCAR-8 ovarian): > 10 µM; TGI (MCF7 breast): > 10 µM; TGI (SR leukemia): > 10 µM; TGI (MDA-MB-435): > 10 µM; TGI (DU-145 prostate): > 10 µM

Which TGI (A498 renal) does the source give for COc1ccc(/C=N/NC(=S)Nc2cc(C)ccc2OC)cc1 here?
Its TGI is greater than 100 µM.

And the TGI (UACC-62 melanoma)?
The TGI was greater than 100 µM.

What about the TGI (A549 NSCLC) of the same compound?
Its TGI is greater than 100 µM.

And the TGI (T-47D breast)?
The TGI was greater than 100 µM.

What about the TGI (SF-268 CNS) of the same compound?
The TGI was greater than 100 µM.

What about the TGI (OVCAR-4 ovarian) of the same compound?
The TGI was greater than 100 µM.

What about the TGI (M14 melanoma) of the same compound?
The TGI was 65.6 µM.

What about the TGI (IGROV1 ovarian) of the same compound?
The TGI was greater than 100 µM.

What about the TGI (OVCAR-3 ovarian) of the same compound?
Its TGI is greater than 100 µM.

And the TGI (HS 578T breast)?
Its TGI is greater than 100 µM.

What about the TGI (SNB-19 CNS) of the same compound?
Its TGI is greater than 100 µM.

What about the TGI (SK-MEL-5 melanoma) of the same compound?
The TGI was 30 µM.

What about the TGI (NCI-H522 lung) of the same compound?
The TGI was 55.9 µM.

And the TGI (SK-MEL-2 melanoma)?
Its TGI is 43.8 µM.

And the TGI (CAKI-1 renal)?
Its TGI is greater than 100 µM.

What about the TGI (MDA-N) of the same compound?
The TGI was 70.7 µM.

What about the TGI (SNB-75 CNS) of the same compound?
Its TGI is greater than 100 µM.

What about the TGI (COLO 205 colon) of the same compound?
Its TGI is 32.7 µM.

And the TGI (RXF 393 renal)?
Its TGI is greater than 100 µM.

What about the TGI (SK-MEL-28 melanoma) of the same compound?
Its TGI is greater than 100 µM.

What about the TGI (HOP-62 NSCLC) of the same compound?
The TGI was greater than 100 µM.

What about the TGI (K-562 leukemia) of the same compound?
Its TGI is 13 µM.

What about the TGI (ACHN renal) of the same compound?
The TGI was greater than 100 µM.

And the TGI (SF-539 CNS)?
Its TGI is 49.3 µM.

What about the TGI (HCT-116 colon) of the same compound?
Its TGI is greater than 100 µM.

And the TGI (EKVX NSCLC)?
The TGI was 59.5 µM.

What about the TGI (MOLT-4 leukemia) of the same compound?
The TGI was 29.2 µM.

And the TGI (786-0 renal)?
The TGI was 70.9 µM.

What about the TGI (HCT-15 colon) of the same compound?
Its TGI is greater than 100 µM.

What about the TGI (OVCAR-5 ovarian) of the same compound?
The TGI was 73 µM.

What about the TGI (UO-31 renal) of the same compound?
Its TGI is greater than 100 µM.

And the TGI (CCRF-CEM leukemia)?
Its TGI is greater than 100 µM.

And the TGI (SF-295 CNS)?
Its TGI is greater than 100 µM.

And the TGI (HL-60(TB) leukemia)?
Its TGI is 66.7 µM.

And the TGI (RPMI-8226 leukemia)?
Its TGI is 27.6 µM.

And the TGI (SN12C renal)?
Its TGI is 68.6 µM.

And the TGI (KM12 colon)?
Its TGI is greater than 100 µM.

And the TGI (SW-620 colon)?
The TGI was greater than 100 µM.

What about the TGI (NCI-H23 lung) of the same compound?
The TGI was 73.8 µM.

What about the TGI (BT-549 breast) of the same compound?
The TGI was 88.8 µM.

And the TGI (OVCAR-8 ovarian)?
The TGI was greater than 100 µM.

And the TGI (HT29 colon)?
The TGI was 79.4 µM.

What about the TGI (MCF7 breast) of the same compound?
The TGI was greater than 100 µM.

What about the TGI (NCI/ADR-RES ovarian) of the same compound?
Its TGI is greater than 100 µM.

And the TGI (SR leukemia)?
The TGI was 41.9 µM.

And the TGI (SK-OV-3 ovarian)?
Its TGI is greater than 100 µM.

What about the TGI (LOX IMVI melanoma) of the same compound?
The TGI was greater than 100 µM.

What about the TGI (HOP-92 NSCLC) of the same compound?
Its TGI is 72 µM.

And the TGI (MDA-MB-435)?
Its TGI is greater than 100 µM.

What about the TGI (PC-3 prostate) of the same compound?
Its TGI is greater than 100 µM.

What about the TGI (DU-145 prostate) of the same compound?
The TGI was greater than 100 µM.

What about the TGI (MALME-3M melanoma) of the same compound?
The TGI was 65.2 µM.

Reference: PubChem BioAssay (NCI)
